Where two headings read alike, the source gives them in different places.
Biological target: interaction between GST-MAGEA11 MHD and FAM-PCF11_4 peptide (MAGE-A11:PCF11) (Homo sapiens (Human), UniProt P43364)
Assay: TR-FRET dose response competition assay for disruption of MAGE-A11:PCF11 binding
Text: TR-FRET Assays and High-throughput Screen. Terbium-anti-GST antibody, 1 M Tris pH 7.5 1 M MgCl2 and 1 M DTT were purchased from Invitrogen (Carlsbad, CA), BSA was purchased from Sigma (St. Louis, MO). Dimethyl sulfoxide (DMSO) was purchased from Fisher Scientific (Pittsburgh, PA). Black 384-well low volume plates and 384-well polypropylene compound plates were purchased from Corning Incorporated (Tewksbury, MA). The St. Jude FDA drug and Bioactive library (11,293 chemicals), Drug-like library (10,073 chemicals) and Lead-like library (10,041 chemicals) were custom assembled and purchased from commercial sources including Sigma, Microsource (Gaylordsville, CT), selleckchem (Houston, TX), ChemDiv (San Diego, CA), ChemBridge (San Diego, CA), Enamine (Monmouth Jct., NJ), and Life Chemicals (Niagara-on-the-Lake, ON, Canada). They were arrayed (10 mM in DMSO) in 384-well polypropylene compound plates with columns 1, 2, 13 and 14 empty which were reserved for controls.
The TR-FRET assay buffer with a formula of 50 mM Tris pH 7.5, 20 mM MgCl2, 0.1 mg/ml BSA and 1 mM DTT was freshly prepared before each experiment. All TR-FRET assays were performed in black 384-well plates with 20 μl/well assay volume in the TR-FRET assay buffer at room temperature (approximately 25° C.). All peptides or compounds were solubilized in DMSO. To test the competitive activity of peptides or compounds against the interaction between GST-MAGEA11 MHD and FAM-PCF11_4 peptide, 10 μl/well peptide or compound at specified concentration was dispensed into a black 384-well low volume plate, followed by 5 μl/well FAM-PCF11_4 (800 nM), 5 μl/well Tb-anti-GST (20 nM) and GST-MAGEA11 MHD (20 nM). The assay components in each well was then mixed by shaking the plate on an IKA MTS 2/4 digital microtiter plate shaker (IKA Works; Wilmington, NC, USA) at 900 RPM for 1 minute. The plate was further centrifuged in an Eppendorf 5810 centrifuge with an A-4-62 swing-bucket rotor (Eppendorf AG, Hamburg, Germany) at 201 g (1000 rpm) for 30 seconds. The plate was then incubated for 90 min with a lid to avoid light exposure to the assay components. After incubation, the fluorescent emission signals at 520 nm and 490 nm channels of individual wells were measured with a PHERAstar FS plate reader (BMG Labtech; Durham, NC, USA) by using a 340 nm excitation filter, 100 μs delay time, and 200 μs integration time. The TR-FRET fluorescence emission ratio (TR-FRET signal) for each well was presented as 10 000×520 nm/490 nm, which was used directly for curve fitting, or further converted to % Inhibition based on the respective positive and negative controls. The graphic software GraphPad Prism 4.81 (GraphPad Software; La Jolla, CA, USA) was used to generate curves and derive IC50 values of tested peptides or compounds, if applicable.
TR-FRET inhibitory activity characterization of a panel of PCF11 peptides against the interaction between GST-MAGEA11 MHD and FAM-PCF11_4 was performed as follows. In a 20 μl/well assay volume, dilutions of PCF11_1 to PCF11_8 peptides (concentrations ranged from 3.1 nM to 100 μM for peptides PCF11_4, PCF11_5, PCF11_6 and PCF11_8 in a 1-to-2 dilution pattern for 16 concentration levels, and ranged from 48.9 nM to 100 μM for peptides of PCF11_1, PCF11_2, PCF11_3 and PCF11_7 in a 1-to-2 dilution pattern for 12 concentration levels), 200 nM FAM-PCF11_4, 5 nM Tb-anti-GST and 5 nM GST-MAGEA11 were mixed together and incubated for 90 min before the TR-FRET signal for each well was measured. The final DMSO concentration was 1.1% (v/v). […] The signal of each peptide-treated well (Signalpeptide) was normalized to the positive and negative controls to derive % inhibition of the peptide at a specific concentration with equation 1. Where applicable, the % Inhibition data were fit into a Sigmoidal dose response equation to derive IC50 values.
TR-FRET screen for identifying MAGEA11 small molecule inhibitors was performed as follows.

[1] = Dose response TR-FRET screening of nine scaffold groups against MAGE-A11:PCF11, read-out: consensus IC50

Chain of interaction between GST-MAGEA11 MHD and FAM-PCF11_4 peptide (MAGE-A11:PCF11) (P43364 218-429): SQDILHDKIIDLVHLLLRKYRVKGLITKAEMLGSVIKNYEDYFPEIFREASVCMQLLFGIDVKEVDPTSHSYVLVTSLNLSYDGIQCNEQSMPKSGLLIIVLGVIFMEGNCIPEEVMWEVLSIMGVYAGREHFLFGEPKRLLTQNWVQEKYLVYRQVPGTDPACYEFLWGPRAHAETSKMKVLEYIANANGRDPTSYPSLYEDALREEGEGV

CN(C)CCCNCc1ccc2[nH]c3ccccc3c2c1 [SJ000054243-1]
IC50 [1]: 69.9 µM

CC(=O)NC1=C(Cl)C(=O)c2ccccc2C1=O [SJ000067071-3]
IC50 [1]: 69.9 µM

COc1ccc(Nc2nc(N)c3ccccc3n2)cc1 [SJ000067204-1]
IC50 [1]: 69.9 µM

COP(=O)(OC)c1nc(-c2ccc(C)cc2)oc1N1CCOCC1 [SJ000090156-1]
IC50 [1]: 69.9 µM

COP(=O)(OC)c1nc(-c2ccc(Br)cc2)oc1N1CCOCC1 [SJ000090176-1]
IC50 [1]: 69.9 µM

COP(=O)(OC)c1nc(-c2ccc(Cl)cc2)oc1N1CCOCC1 [SJ000090185-1]
IC50 [1]: 17.4 µM

CCOP(=O)(OCC)c1nc(-c2ccc(Cl)cc2)oc1N1CCOCC1 [SJ000090230-1]
IC50 [1]: 69.9 µM

COP(=O)(OC)c1nc(-c2ccc([N+](=O)[O-])cc2)oc1N1CCOCC1 [SJ000092444-1]
IC50 [1]: 69.9 µM

CCOP(=O)(OCC)c1nc(-c2ccc([N+](=O)[O-])cc2)oc1N1CCOCC1 [SJ000092459-1]
IC50 [1]: 69.9 µM

CN(C)c1ccc(NC2=C(Cl)C(=O)c3ccccc3C2=O)cc1 [SJ000109503-1]
IC50 [1]: 3.3 µM

CCn1c2ccccc2c2cc(CN3CCN(Cc4c[nH]c5ccccc45)CC3)ccc21 [SJ000111264-1]
IC50 [1]: 69.9 µM

COc1ccc(C2Nc3ccccc3C(=O)N2Cc2ccccc2)cc1CSc1ccccn1 (stereo not shown) [SJ000111312-2]
IC50 [1]: 69.9 µM

CCn1c2ccccc2c2cc(CNCCc3ccccc3)ccc21 [SJ000111712-1]
IC50 [1]: 69.9 µM

CCn1c2ccccc2c2cc(CN3CCN(Cc4cc(OC)ccc4O)CC3)ccc21 [SJ000111875-2]
IC50 [1]: 69.9 µM

CCn1c2ccccc2c2cc(CNCc3ccc(OC)cc3)ccc21 [SJ000112430-1]
IC50 [1]: 69.9 µM

CCn1c2ccccc2c2cc(CNCCc3ccc(Cl)cc3)ccc21 [SJ000112458-1]
IC50 [1]: 69.9 µM

CCn1c2ccccc2c2cc(CNCCc3ccc4c(c3)OCO4)ccc21 [SJ000112461-1]
IC50 [1]: 69.9 µM

CCn1c2ccccc2c2cc(CN3CCC(N4CCN(c5ccccc5)CC4)CC3)ccc21 [SJ000112860-1]
IC50 [1]: 69.9 µM

COc1cc2nc(N3CCN(C(=O)C4COc5ccccc5O4)CC3)nc(N)c2cc1OC (stereo not shown) [SJ000113084-10]
IC50 [1]: 57.1 µM

Cc1ccc(NC2=C(Cl)C(=O)c3ccccc3C2=O)cc1 [SJ000120750-1]
IC50 [1]: 69.9 µM

COc1c2ccoc2nc2c(OC)c(OCC(O)C(C)O)ccc12 (stereo not shown) [SJ000121402]
IC50 (Table 8, representative compounds, read-out: TR-FRET IC50): > 69.9 µM

CCOc1ccc(NC2=C(Cl)C(=O)c3ccccc3C2=O)cc1 [SJ000122936-1]
IC50 [1]: 69.9 µM

CN(C)CCCNC(=O)c1ccc2[nH]c3ccccc3c2c1 [SJ000123281-1]
IC50 [1]: 69.9 µM

COP(=O)(OC)c1nc(-c2ccccc2)oc1N1CCOCC1 [SJ000124835-1]
IC50 [1]: 69.9 µM

CCOC(=O)COc1ccc(-c2nc3c(=O)n(C)c(=O)n(C)c3[nH]2)cc1OC [SJ000140137-1]
IC50 [1]: 69.9 µM

Cc1ccc(-c2nc(S(=O)(=O)c3ccc(Cl)cc3)c(N3CCOCC3)o2)cc1 [SJ000140851-1]
IC50 [1]: 69.9 µM

CCCNC1=C(Cl)C(=O)c2ccccc2C1=O [SJ000141460-3]
IC50 [1]: 69.9 µM

CNC1=C(Cl)C(=O)c2ccccc2C1=O [SJ000141461-1]
IC50 [1]: 69.9 µM

O=S(=O)(c1ccc(Cl)cc1)c1nc(-c2ccccc2Cl)oc1N1CCOCC1 [SJ000141574-1]
IC50 [1]: 69.9 µM

CCN1CCN(Cc2ccc3c(c2)c2ccccc2n3CC)CC1 [SJ000142875-1]
IC50 [1]: 69.9 µM

CCn1c2ccccc2c2cc(CN3CCN(C)CC3)ccc21 [SJ000142908-1]
IC50 [1]: 69.9 µM

CCn1c2ccccc2c2cc(CN3CCN(CCO)CC3)ccc21 [SJ000145592-1]
IC50 [1]: 69.9 µM

CCOC(=O)N1CCN(Cc2ccc3c(c2)c2ccccc2n3CC)CC1 [SJ000147352-1]
IC50 [1]: 29.5 µM

CCC(CO)NC1=C(Cl)C(=O)c2ccccc2C1=O (stereo not shown) [SJ000148678-1]
IC50 [1]: 69.9 µM

CCC(COC(C)=O)NC1=C(Cl)C(=O)c2ccccc2C1=O (stereo not shown) [SJ000149466-1]
IC50 [1]: 17.2 µM

CCNC1=C(Cl)C(=O)c2ccccc2C1=O [SJ000157082-1]
IC50 [1]: 69.9 µM

Cc1ccc(-c2nc(S(=O)(=O)c3ccccc3)c(N3CCOCC3)o2)cc1 [SJ000159484-1]
IC50 [1]: 69.9 µM

Reference: patent US20240246941A1, “SUBSTITUTED 4-(3-AMINOPROP-1-YL)AMINOQUINOLINE ANALOGS AS MODULATORS OF MELANOMA-ASSOCIATED ANTIGEN 11 UBIQUITIN LIGASE” (ST. JUDE CHILDREN'S RESEARCH HOSPITAL, INC., priority 2020, published 2024)
